Experimental data published in US10442807B2, “Aryl substituted bicyclic compounds as herbicides” (FMC Corporation, priority 2015, dated 2019).

Legend:
Assay type in all cases: in vivo
[1] = system: ragweed (common ragweed, Ambrosia elation); experiment: Test A preemergence, directed soil spray, visual injury rating; settings: approx. 10 d, 0 = no effect, 100 = complete control
Method in brief: (§1)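 In a loam soil and sand blend, either planted seeds got a preemergence directed soil spray or plants at the one- to two-leaf stage (2 to 10 cm tall) were sprayed, using test chemicals in a non-phytotoxic solvent mixture with surfactant. After about 10 d in a greenhouse, injury was visually rated against untreated controls on a 0-100 scale.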

[2] = system: barnyardgrass (Echinochloa crus-galli); experiment: as above; settings: approx. 10 d, 0 = no effect, 100 = complete control
Method in brief: as §1

kochia (Kochia scoparia) [3] = experiment: as above; settings: approx. 10 d, 0 = no effect, 100 = complete control
Method in brief: as §1

[4] = system: ryegrass, Italian (Italian ryegrass, Lolium multiflorum); experiment: as above; settings: approx. 10 d, 0 = no effect, 100 = complete control
Method in brief: as §1

[5] = system: pigweed (Amaranthus retroflexus); experiment: as above; settings: approx. 10 d, 0 = no effect, 100 = complete control
Method in brief: as §1

[6] = system: foxtail, giant (giant foxtail, Setaria faberii); experiment: as above; settings: approx. 10 d, 0 = no effect, 100 = complete control
Method in brief: as §1

[7] = system: ragweed (common ragweed, Ambrosia elation); experiment: Test A postemergence application, visual injury rating; settings: approx. 10 d, 0 = no effect, 100 = complete control
Method in brief: as §1

[8] = system: barnyardgrass (Echinochloa crus-galli); experiment: as above; settings: approx. 10 d, 0 = no effect, 100 = complete control
Method in brief: as §1

[9] = system: wheat (Triticum aestivum); experiment: as above; settings: approx. 10 d, 0 = no effect, 100 = complete control
Method in brief: as §1

kochia (Kochia scoparia) [10] = experiment: as above; settings: approx. 10 d, 0 = no effect, 100 = complete control
Method in brief: as §1

[11] = system: ryegrass, Italian (Italian ryegrass, Lolium multiflorum); experiment: as above; settings: approx. 10 d, 0 = no effect, 100 = complete control
Method in brief: as §1

[12] = system: pigweed (Amaranthus retroflexus); experiment: as above; settings: approx. 10 d, 0 = no effect, 100 = complete control
Method in brief: as §1

[13] = system: foxtail, giant (giant foxtail, Setaria faberii); experiment: as above; settings: approx. 10 d, 0 = no effect, 100 = complete control
Method in brief: as §1

[14] = system: galium (catchweed bedstraw, Galium aparine); experiment: as above; settings: approx. 10 d, 0 = no effect, 100 = complete control
Method in brief: as §1

corn (Zea mays) = experiment: as above; settings: approx. 10 d, 0 = no effect, 100 = complete control
Method in brief: as §1

[15] = system: blackgrass (Alopecurus myosuroides); experiment: as above; settings: approx. 10 d, 0 = no effect, 100 = complete control
Method in brief: as §1

rice (Oryza sativa) = experiment: Test B flooded paddy test, visual plant response rating; settings: 250 g ai/ha; applied to paddy water at 2-leaf stage; rated after 13 to 15 days; scale 0 to 100, 0 is no effect, 100 is complete control
Method in brief: (§2)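 Visual 0–100 scores (0 none, 100 complete control) versus controls were taken 13 to 15 days after treatment in a greenhouse. Treatment was applied into flood water kept at 3 cm over the soil surface for the whole test.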

[16] = system: barnyardgrass (Echinochloa crus-galli); experiment: as above; settings: 250 g ai/ha; applied to paddy water at 2-leaf stage; rated after 13 to 15 days; scale 0 to 100, 0 is no effect, 100 is complete control
Method in brief: as §2

[17] = system: ducksalad (Heteranthera limosa); experiment: as above; settings: 250 g ai/ha; applied to paddy water at 2-leaf stage; rated after 13 to 15 days; scale 0 to 100, 0 is no effect, 100 is complete control
Method in brief: as §2

[18] = system: sedge, umbrella (small-flower umbrella sedge, Cyperus difformis); experiment: as above; settings: 250 g ai/ha; applied to paddy water at 2-leaf stage; rated after 13 to 15 days; scale 0 to 100, 0 is no effect, 100 is complete control
Method in brief: as §2

Row | SMILES | Ragweed plant response rating (0 to 100 scale) ([1]; 125 g ai/ha) | Ragweed plant response rating (0 to 100 scale) ([1]; 500 g ai/ha) | Barnyardgrass plant response rating (0 to 100 scale) ([2]; 125 g ai/ha) | Barnyardgrass plant response rating (0 to 100 scale) ([2]; 500 g ai/ha) | Kochia plant response rating (0 to 100 scale) (kochia (Kochia scoparia) [3]; 125 g ai/ha) | Kochia plant response rating (0 to 100 scale) (kochia (Kochia scoparia) [3]; 500 g ai/ha) | Ryegrass, Italian plant response rating (0 to 100 scale) ([4]; 125 g ai/ha) | Ryegrass, Italian plant response rating (0 to 100 scale) ([4]; 500 g ai/ha) | Pigweed plant response rating (0 to 100 scale) ([5]; 125 g ai/ha) | Pigweed plant response rating (0 to 100 scale) ([5]; 500 g ai/ha) | Foxtail, Giant plant response rating (0 to 100 scale) ([6]; 125 g ai/ha) | Foxtail, Giant plant response rating (0 to 100 scale) ([6]; 500 g ai/ha) | Ragweed plant response rating (0 to 100 scale) ([7]; 125 g ai/ha) | Ragweed plant response rating (0 to 100 scale) ([7]; 500 g ai/ha) | Barnyardgrass plant response rating (0 to 100 scale) ([8]; 125 g ai/ha) | Barnyardgrass plant response rating (0 to 100 scale) ([8]; 500 g ai/ha) | Wheat plant response rating (0 to 100 scale) ([9]; 125 g ai/ha) | Wheat plant response rating (0 to 100 scale) ([9]; 500 g ai/ha) | Kochia plant response rating (0 to 100 scale) (kochia (Kochia scoparia) [10]; 125 g ai/ha) | Kochia plant response rating (0 to 100 scale) (kochia (Kochia scoparia) [10]; 500 g ai/ha) | also measured
1 | CCc1ccc(C2Cn3cnnc3C2C(=O)Nc2ccccc2SC)cc1 (stereo not drawn) [Compound 25] | 0 | 0 | 0 | 40 | 0 | 20 | 0 | 0 | 0 | 0 | 0 | 40 | 0 | 0 | 20 | 30 | 0 | 0 | 30 | 30 | Ryegrass, Italian plant response rating (0 to 100 scale) ([11]; 125 g ai/ha): 0; Ryegrass, Italian plant response rating (0 to 100 scale) ([11]; 500 g ai/ha): 0; Pigweed plant response rating (0 to 100 scale) ([12]; 125 g ai/ha): 0; Pigweed plant response rating (0 to 100 scale) ([12]; 500 g ai/ha): 0; Foxtail, Giant plant response rating (0 to 100 scale) ([13]; 125 g ai/ha): 0; Foxtail, Giant plant response rating (0 to 100 scale) ([13]; 500 g ai/ha): 30; Galium plant response rating (0 to 100 scale) ([14]; 125 g ai/ha): 0; Galium plant response rating (0 to 100 scale) ([14]; 500 g ai/ha): 0; Corn plant response rating (0 to 100 scale) (corn (Zea mays); 125 g ai/ha): 0; Corn plant response rating (0 to 100 scale) (corn (Zea mays); 500 g ai/ha): 0; Blackgrass plant response rating (0 to 100 scale) ([15]; 125 g ai/ha): 0; Blackgrass plant response rating (0 to 100 scale) ([15]; 500 g ai/ha): 0; Plant response rating, Flood, Rice (rice (Oryza sativa)): 0; Plant response rating, Flood, Barnyardgrass [16]: 0; Plant response rating, Flood, Ducksalad [17]: 65; Plant response rating, Flood, Sedge, Umbrella [18]: 0
2 | Cc1ccc(C2Cn3cnnc3C2C(=O)Nc2cccc(F)c2C)cc1C (stereo not drawn) [Compound 26] | 0 | 0 | 60 | 90 | 20 | 30 | 0 | 50 | 0 | 0 | 80 | 90 | 0 | 0 | 50 | 80 | 30 | 0 | 0 | 0 | Ryegrass, Italian plant response rating (0 to 100 scale) ([11]; 125 g ai/ha): 0; Ryegrass, Italian plant response rating (0 to 100 scale) ([11]; 500 g ai/ha): 20; Pigweed plant response rating (0 to 100 scale) ([12]; 125 g ai/ha): 0; Pigweed plant response rating (0 to 100 scale) ([12]; 500 g ai/ha): 0; Foxtail, Giant plant response rating (0 to 100 scale) ([13]; 125 g ai/ha): 50; Foxtail, Giant plant response rating (0 to 100 scale) ([13]; 500 g ai/ha): 80; Galium plant response rating (0 to 100 scale) ([14]; 125 g ai/ha): 30; Galium plant response rating (0 to 100 scale) ([14]; 500 g ai/ha): 0; Corn plant response rating (0 to 100 scale) (corn (Zea mays); 125 g ai/ha): 20; Corn plant response rating (0 to 100 scale) (corn (Zea mays); 500 g ai/ha): 0; Blackgrass plant response rating (0 to 100 scale) ([15]; 125 g ai/ha): 0; Blackgrass plant response rating (0 to 100 scale) ([15]; 500 g ai/ha): 50; Plant response rating, Flood, Rice (rice (Oryza sativa)): 20; Plant response rating, Flood, Barnyardgrass [16]: 0; Plant response rating, Flood, Ducksalad [17]: 85; Plant response rating, Flood, Sedge, Umbrella [18]: 0
3 | Cc1ccc(C2Cn3c(C)nnc3C2C(=O)Nc2ccccc2F)cc1 (stereo not drawn) [Compound 27] | 0 | 0 | 0 | 90 | 0 | 0 | 20 | 20 | 0 | 0 | 80 | 90 | 0 | 0 | 40 | 90 | 0 | 0 | 0 | 0 | Ryegrass, Italian plant response rating (0 to 100 scale) ([11]; 125 g ai/ha): 0; Ryegrass, Italian plant response rating (0 to 100 scale) ([11]; 500 g ai/ha): 30; Pigweed plant response rating (0 to 100 scale) ([12]; 125 g ai/ha): 0; Pigweed plant response rating (0 to 100 scale) ([12]; 500 g ai/ha): 0; Foxtail, Giant plant response rating (0 to 100 scale) ([13]; 125 g ai/ha): 30; Foxtail, Giant plant response rating (0 to 100 scale) ([13]; 500 g ai/ha): 90; Galium plant response rating (0 to 100 scale) ([14]; 125 g ai/ha): 0; Galium plant response rating (0 to 100 scale) ([14]; 500 g ai/ha): 40; Corn plant response rating (0 to 100 scale) (corn (Zea mays); 125 g ai/ha): 0; Corn plant response rating (0 to 100 scale) (corn (Zea mays); 500 g ai/ha): 0; Blackgrass plant response rating (0 to 100 scale) ([15]; 125 g ai/ha): 0; Blackgrass plant response rating (0 to 100 scale) ([15]; 500 g ai/ha): 20; Plant response rating, Flood, Rice (rice (Oryza sativa)): 0; Plant response rating, Flood, Barnyardgrass [16]: 0; Plant response rating, Flood, Ducksalad [17]: 70; Plant response rating, Flood, Sedge, Umbrella [18]: 0
